Results on one molecule are retold here after paper PMC7206119, “RIP1 inhibition blocks inflammatory diseases but not tumor growth or metastases” (Cell Death and Differentiation, 2019).

Each structure is given as a SMILES string.

Common to all, as to test: biochemical
Common to all, as to design: Thermo Fisher SelectScreen kinase panel: Z'-LYTE and Adapta activity, LanthaScreen binding
On the technique in general: TR-FRET usually uses a lanthanide donor and a delayed reading to cut background.

One experiment has as its target PAK6 (Homo sapiens, UniProt Q9NQU5). In outline: (§1)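 GNE684 profiled at 10 µM across 221 kinases with Z'-LYTE and Adapta activity and LanthaScreen binding formats. Also screened at 10 µM against 468 kinases in KINOMEscan scanMAX binding assay.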
A further experiment deals with SGK1 (Homo sapiens, UniProt O00141). In outline:
as §1

Another experiment deals with LRRK2 (Homo sapiens, UniProt Q5S007). In outline:
as §1

The target in a further experiment is ERBB4 (Homo sapiens, UniProt Q15303). In outline: as §1
The next experiment has as its target T1, PRAK (Homo sapiens, UniProt Q8IW41).
T1 construct: gene MAPKAPK5
The method, boiled down: as §1

The next experiment has as its target CLK4 (Homo sapiens, UniProt Q9HAZ1). In outline:
as §1

The next experiment concerns the target TNK2 (Homo sapiens, UniProt Q07912). In outline:
as §1

A further experiment deals with T2, CK1_gamma2 (Homo sapiens, UniProt P78368).
T2 construct: gene CSNK1G2
The method, boiled down: as §1

The target of another experiment is BTK (Homo sapiens, UniProt Q06187). The method, boiled down:
as §1

For a further experiment, the target named is T3, Mer (Homo sapiens, UniProt Q12866).
T3 construct: gene MERTK
The method, boiled down: as §1

In a further experiment the target is PAK3 (Homo sapiens, UniProt O75914). The method, boiled down: as §1
The next experiment deals with T4, Srm (Homo sapiens, UniProt Q9H3Y6).
T4 construct: gene SRMS
In outline:
as §1

A further experiment has as its target T5, CaMKII_beta (Homo sapiens, UniProt Q13554).
T5 construct: gene CAMK2B
In outline:
as §1

A further experiment has as its target T6, ERK2 (Homo sapiens, UniProt P28482).
T6 construct: gene MAPK1
In outline: as §1

A further experiment addresses T7, TRKA (Homo sapiens, UniProt P04629).
T7 construct: gene NTRK1
In outline:
as §1

The next experiment concerns the target T8, PKG1_alpha (Homo sapiens, UniProt Q13976).
T8 construct: gene PRKG1; isoform alpha
In outline: as §1

In a further experiment the target is T9, Ros (Homo sapiens, UniProt P08922).
T9 construct: gene ROS1
In outline:
as §1

Another experiment concerns the target PASK (Homo sapiens, UniProt Q96RG2). In outline:
as §1

Another experiment deals with T10, Tpl2 (Homo sapiens, UniProt P41279).
T10 construct: gene MAP3K8
The method, boiled down:
as §1

In the next experiment the target is T11, PDK1(direct) (Homo sapiens, UniProt O15530).
T11 construct: gene PDPK1; direct
In outline: as §1

The target of a further experiment is SIK2 (Homo sapiens, UniProt Q9H0K1). The method, boiled down:
as §1

The target in the next experiment is T12, MLK1 (Homo sapiens, UniProt P80192).
T12 construct: gene MAP3K9
The method, boiled down:
as §1

The target of a further experiment is T13, CK1_epsilon1 (Homo sapiens, UniProt P49674).
T13 construct: gene CSNK1E
The method, boiled down:
as §1

Sequence of SIK2 (Q9H0K1 whole entry): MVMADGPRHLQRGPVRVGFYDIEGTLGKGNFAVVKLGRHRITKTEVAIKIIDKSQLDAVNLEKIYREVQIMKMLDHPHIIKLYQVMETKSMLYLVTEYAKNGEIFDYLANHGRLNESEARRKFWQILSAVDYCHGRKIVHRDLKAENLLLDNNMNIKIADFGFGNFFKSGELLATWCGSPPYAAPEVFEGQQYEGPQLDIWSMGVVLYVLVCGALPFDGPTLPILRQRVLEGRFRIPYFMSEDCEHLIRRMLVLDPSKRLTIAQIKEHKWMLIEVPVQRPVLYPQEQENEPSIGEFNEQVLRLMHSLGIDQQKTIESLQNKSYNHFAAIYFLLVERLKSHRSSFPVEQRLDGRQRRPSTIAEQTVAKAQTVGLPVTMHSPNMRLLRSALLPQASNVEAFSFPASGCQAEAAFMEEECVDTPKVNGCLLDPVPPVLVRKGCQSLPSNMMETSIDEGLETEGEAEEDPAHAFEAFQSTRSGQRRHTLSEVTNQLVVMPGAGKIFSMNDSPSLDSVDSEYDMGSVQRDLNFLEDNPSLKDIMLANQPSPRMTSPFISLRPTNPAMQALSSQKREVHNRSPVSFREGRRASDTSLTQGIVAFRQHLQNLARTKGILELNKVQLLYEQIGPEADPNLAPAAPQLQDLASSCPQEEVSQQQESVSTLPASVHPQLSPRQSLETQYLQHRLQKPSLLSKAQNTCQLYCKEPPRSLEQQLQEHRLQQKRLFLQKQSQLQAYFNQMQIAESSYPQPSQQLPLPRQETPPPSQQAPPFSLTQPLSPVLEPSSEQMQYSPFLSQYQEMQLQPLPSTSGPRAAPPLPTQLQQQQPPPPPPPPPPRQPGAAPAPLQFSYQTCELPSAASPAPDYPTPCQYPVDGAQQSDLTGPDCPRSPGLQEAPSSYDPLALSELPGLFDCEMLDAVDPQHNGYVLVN
T7 sequence (P04629 whole entry): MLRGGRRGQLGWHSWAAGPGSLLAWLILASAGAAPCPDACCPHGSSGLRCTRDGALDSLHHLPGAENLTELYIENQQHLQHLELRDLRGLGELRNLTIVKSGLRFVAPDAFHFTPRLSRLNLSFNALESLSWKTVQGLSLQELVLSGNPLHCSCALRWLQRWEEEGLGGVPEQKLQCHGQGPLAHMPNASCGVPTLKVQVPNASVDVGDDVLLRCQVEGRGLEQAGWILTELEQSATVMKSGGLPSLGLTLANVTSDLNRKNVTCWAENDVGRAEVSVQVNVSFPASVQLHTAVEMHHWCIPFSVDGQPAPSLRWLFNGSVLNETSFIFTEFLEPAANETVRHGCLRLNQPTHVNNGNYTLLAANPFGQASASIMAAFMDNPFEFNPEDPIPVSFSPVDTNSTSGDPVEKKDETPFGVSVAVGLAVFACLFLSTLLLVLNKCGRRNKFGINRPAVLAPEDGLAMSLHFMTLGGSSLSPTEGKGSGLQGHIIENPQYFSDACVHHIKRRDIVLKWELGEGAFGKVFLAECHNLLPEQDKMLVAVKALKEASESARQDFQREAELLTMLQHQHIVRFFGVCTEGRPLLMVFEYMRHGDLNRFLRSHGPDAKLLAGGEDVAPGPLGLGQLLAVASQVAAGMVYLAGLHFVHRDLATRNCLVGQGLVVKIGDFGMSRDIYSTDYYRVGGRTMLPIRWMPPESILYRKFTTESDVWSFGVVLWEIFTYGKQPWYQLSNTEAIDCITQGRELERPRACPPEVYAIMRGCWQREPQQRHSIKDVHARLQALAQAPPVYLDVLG
T10 sequence (P41279 whole entry): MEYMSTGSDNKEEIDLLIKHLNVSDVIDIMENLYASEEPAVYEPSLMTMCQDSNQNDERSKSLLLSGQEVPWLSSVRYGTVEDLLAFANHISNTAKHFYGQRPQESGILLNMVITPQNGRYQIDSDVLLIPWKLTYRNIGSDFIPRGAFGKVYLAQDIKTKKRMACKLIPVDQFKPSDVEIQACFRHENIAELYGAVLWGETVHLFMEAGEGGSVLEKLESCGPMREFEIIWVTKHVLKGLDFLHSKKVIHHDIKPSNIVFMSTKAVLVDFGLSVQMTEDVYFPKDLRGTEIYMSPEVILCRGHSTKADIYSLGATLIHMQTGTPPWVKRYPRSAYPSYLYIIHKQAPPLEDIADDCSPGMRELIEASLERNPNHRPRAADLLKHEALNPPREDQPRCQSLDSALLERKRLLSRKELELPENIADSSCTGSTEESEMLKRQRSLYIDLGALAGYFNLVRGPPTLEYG
Sequence of TNK2 (Q07912 whole entry): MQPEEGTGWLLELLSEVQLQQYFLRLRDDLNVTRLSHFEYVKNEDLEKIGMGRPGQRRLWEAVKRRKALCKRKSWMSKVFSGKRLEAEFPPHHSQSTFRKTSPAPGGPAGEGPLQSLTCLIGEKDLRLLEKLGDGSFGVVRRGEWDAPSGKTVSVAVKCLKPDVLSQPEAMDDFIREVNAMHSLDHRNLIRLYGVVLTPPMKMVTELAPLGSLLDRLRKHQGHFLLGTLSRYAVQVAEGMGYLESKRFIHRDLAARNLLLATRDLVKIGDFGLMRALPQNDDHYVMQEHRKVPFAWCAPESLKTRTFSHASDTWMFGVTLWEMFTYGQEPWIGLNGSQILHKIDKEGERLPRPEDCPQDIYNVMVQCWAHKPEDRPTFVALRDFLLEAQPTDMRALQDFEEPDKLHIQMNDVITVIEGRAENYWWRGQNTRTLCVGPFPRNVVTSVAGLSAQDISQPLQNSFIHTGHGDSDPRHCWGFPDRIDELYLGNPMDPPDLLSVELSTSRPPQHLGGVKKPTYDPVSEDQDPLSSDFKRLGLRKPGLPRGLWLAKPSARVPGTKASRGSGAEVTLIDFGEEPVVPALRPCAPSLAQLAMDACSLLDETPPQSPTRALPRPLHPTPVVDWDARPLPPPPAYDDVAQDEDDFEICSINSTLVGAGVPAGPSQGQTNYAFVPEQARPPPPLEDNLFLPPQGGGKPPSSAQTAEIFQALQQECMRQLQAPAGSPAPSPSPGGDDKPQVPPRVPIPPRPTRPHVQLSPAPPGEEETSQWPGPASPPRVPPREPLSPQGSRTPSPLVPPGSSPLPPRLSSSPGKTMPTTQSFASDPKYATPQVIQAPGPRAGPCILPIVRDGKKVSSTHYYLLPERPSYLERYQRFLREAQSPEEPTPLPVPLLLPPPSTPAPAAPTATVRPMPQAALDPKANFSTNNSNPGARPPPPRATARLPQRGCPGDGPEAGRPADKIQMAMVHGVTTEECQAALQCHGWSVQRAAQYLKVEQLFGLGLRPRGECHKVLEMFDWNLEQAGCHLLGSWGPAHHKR
T6 sequence (P28482 whole entry): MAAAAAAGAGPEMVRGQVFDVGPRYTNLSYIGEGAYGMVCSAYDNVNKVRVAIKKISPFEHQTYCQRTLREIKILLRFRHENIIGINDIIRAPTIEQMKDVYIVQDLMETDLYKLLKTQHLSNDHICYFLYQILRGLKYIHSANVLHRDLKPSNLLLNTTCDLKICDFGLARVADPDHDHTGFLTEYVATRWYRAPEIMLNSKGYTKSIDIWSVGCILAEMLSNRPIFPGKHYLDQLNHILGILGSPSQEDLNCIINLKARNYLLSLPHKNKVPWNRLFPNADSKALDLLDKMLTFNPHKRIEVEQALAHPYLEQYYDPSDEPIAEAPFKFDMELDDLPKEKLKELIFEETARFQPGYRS
Sequence of PASK (Q96RG2 whole entry): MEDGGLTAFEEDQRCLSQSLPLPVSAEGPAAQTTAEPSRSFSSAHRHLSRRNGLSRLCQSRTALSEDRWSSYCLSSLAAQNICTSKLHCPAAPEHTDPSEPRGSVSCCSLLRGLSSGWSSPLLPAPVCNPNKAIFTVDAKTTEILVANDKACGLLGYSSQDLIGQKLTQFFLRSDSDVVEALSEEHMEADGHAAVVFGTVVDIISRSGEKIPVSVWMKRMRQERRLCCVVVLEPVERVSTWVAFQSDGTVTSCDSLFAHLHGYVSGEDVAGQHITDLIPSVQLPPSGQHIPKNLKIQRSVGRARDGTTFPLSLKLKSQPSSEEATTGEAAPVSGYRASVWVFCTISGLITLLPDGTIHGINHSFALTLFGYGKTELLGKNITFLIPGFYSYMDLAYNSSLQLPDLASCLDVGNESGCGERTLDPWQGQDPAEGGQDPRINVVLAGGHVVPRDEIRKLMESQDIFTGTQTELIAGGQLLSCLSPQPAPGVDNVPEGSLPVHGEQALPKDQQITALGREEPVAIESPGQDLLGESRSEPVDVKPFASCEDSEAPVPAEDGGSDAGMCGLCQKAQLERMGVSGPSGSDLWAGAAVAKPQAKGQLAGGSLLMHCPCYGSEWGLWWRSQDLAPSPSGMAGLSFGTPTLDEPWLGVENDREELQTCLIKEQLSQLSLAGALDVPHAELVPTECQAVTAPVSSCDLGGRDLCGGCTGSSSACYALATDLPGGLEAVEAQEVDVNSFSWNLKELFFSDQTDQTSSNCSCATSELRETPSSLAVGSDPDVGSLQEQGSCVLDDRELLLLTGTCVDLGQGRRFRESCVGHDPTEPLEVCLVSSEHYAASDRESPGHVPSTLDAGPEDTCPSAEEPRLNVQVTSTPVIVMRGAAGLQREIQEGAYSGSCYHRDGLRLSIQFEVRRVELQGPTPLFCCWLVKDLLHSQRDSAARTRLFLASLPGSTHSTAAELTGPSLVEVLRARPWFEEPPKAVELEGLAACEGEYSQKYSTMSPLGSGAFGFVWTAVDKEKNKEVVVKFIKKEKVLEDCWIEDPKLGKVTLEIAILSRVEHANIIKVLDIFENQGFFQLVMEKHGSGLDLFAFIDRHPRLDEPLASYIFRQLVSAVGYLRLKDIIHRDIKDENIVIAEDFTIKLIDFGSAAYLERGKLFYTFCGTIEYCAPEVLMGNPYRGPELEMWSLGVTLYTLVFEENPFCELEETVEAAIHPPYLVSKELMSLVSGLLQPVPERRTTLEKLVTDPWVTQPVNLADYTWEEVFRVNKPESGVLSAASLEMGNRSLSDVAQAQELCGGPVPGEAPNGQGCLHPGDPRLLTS

For orientation: inhibition means the relative decrease from the control value, in per cent. As to `COc1cc2c(cn1)N(C)C(=O)[C@@H](NC(=O)c1nc3n(n1)[C@H](c1ccccc1)CC3)CC2` [GNE684, (S)-N-((S)-7-methoxy-1-methyl-2-oxo-2,3,4,5-tetrahydro-1H-pyrido[3,4-b]azepin-3-yl)-5-phenyl-6,7-dihydro-5H-pyrrolo[1,2-b][1,2,4]triazole-2-carboxamide], the inhibition at 10 µM at PAK6 was 4.5%; on SGK1 it was -1%; on LRRK2, -19.5%; on ERBB4, 4%; at PRAK, 2.5%; at CLK4 it was 2.5%. Also, the inhibition at 10 µM is 2.5% on TNK2; 2% at CK1_gamma2; -3.5% at BTK; -5% at Mer; 6% at PAK3; 9% at Srm. In addition, the inhibition at 10 µM at CaMKII_beta was 2.5%; on ERK2 it was 1%; at TRKA it was -3%; at PKG1_alpha it was 7%; on Ros, 3%; at PASK, 4.5%. The inhibition at 10 µM on Tpl2 was determined as 7%; at PDK1(direct), 5%; at SIK2, 8.5%; at MLK1, 7.5%; at CK1_epsilon1, 5%.
